These results are taken from patent publication US20240424113A1, “CONJUGATES COMPRISING ANTIFUNGALS AND HEAT SHOCK PROTEIN 90 (HSP90) INHIBITORS AND METHODS OF USE THEREOF” (Bright Angel Therapeutics Inc., priority 2021, published 2024).

In data set [1] the target is Hsp90 Nuclear Binding Domain (NBD) (Aspergillus fumigatus, UniProt P40292). The data set can be described thus: Surface Plasmon Resonance (SPR) binding, A. fumigatus Hsp90 NBD. The note with it: biotinylated Hsp90 NBD on streptavidin chip, 25° C., 1:1 binding model; NB undefined. An outline of the steps:
(§1)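 Biacore S200 at 25° C; AviTag-biotinylated recombinant Hsp90 NBD captured on streptavidin chip at 2000-2500 RU. Compound dilution series run in HBS-P pH 7.4 with 2% DMSO at 40 μL/min, 60 s association and 600 s dissociation. Sensorgrams fitted to a 1:1 binding model.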

The next data set concerns CaCl2. The data set can be described thus: Antifungal sensitivity testing (broth microdilution MIC). The format is cell-based. Conditions: 96-well broth microdilution. A digest of the protocol: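 Broth microdilution MIC per a modified published protocol; compounds dissolved in DMSO, fluconazole in water; duplicates in at least two independent experiments. Fungicidal activity checked by spotting MIC-plate cultures onto YPD agar, read after 24 h at 30° C.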
(In broth dilution the organism is exposed to a series of concentrations in liquid medium.)

The subject of another data set is HepG2 cells. The data set can be described thus: Mammalian cell toxicity (Cell Titer-Glo). The format is cell-based. On the procedure: Mammalian Cell Toxicity. HepG2 cells were seeded overnight at 500 cells/well in 384-well plate, then incubated with compounds (10-point concentration titration) for 48 h. Cell Titer-Glo® reagent ([…]) was added to each well and after 10-minute incubation at room temperature the luminescent signal was measured using an Envision plate reader (Perkin Elmer).
(In general: ATP-based viability assays read luminescence as a measure of living cells.)

For data set [2], the target named is Hsp90 Nuclear Binding Domain (NBD) (Candida albicans (strain SC5314 / ATCC MYA-2876) (Yeast), UniProt P46598). The data set can be described thus: Surface Plasmon Resonance (SPR) binding, C. albicans Hsp90 NBD. The note with it: biotinylated Hsp90 NBD on streptavidin chip, 25° C., 1:1 binding model. A digest of the protocol:
as §1

By Kd is commonly meant the constant that tells how readily two partners part at equilibrium. A higher Kd goes with lower affinity. Broadly, the MIC50 is the lowest concentration that inhibits either 50% of growth or 50% of the strains tested, depending on the study.

Structures are written as SMILES. Values after ≈ are worked out from the molar mass of the structure shown.

Hsp90 Nuclear Binding Domain (NBD) (Candida albicans (strain SC5314 / ATCC MYA-2876) (Yeast), UniProt P46598), sequence (P46598 1-218 limits assumed): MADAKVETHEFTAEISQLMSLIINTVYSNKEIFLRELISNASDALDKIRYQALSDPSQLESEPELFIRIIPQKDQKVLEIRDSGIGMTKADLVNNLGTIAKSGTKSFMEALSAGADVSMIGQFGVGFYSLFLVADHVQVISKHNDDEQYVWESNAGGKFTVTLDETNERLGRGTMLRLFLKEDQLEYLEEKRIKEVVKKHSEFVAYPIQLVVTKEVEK
Hsp90 Nuclear Binding Domain (NBD) (Aspergillus fumigatus, UniProt P40292), sequence (P40292 whole entry, looked up, the tested form may be a part): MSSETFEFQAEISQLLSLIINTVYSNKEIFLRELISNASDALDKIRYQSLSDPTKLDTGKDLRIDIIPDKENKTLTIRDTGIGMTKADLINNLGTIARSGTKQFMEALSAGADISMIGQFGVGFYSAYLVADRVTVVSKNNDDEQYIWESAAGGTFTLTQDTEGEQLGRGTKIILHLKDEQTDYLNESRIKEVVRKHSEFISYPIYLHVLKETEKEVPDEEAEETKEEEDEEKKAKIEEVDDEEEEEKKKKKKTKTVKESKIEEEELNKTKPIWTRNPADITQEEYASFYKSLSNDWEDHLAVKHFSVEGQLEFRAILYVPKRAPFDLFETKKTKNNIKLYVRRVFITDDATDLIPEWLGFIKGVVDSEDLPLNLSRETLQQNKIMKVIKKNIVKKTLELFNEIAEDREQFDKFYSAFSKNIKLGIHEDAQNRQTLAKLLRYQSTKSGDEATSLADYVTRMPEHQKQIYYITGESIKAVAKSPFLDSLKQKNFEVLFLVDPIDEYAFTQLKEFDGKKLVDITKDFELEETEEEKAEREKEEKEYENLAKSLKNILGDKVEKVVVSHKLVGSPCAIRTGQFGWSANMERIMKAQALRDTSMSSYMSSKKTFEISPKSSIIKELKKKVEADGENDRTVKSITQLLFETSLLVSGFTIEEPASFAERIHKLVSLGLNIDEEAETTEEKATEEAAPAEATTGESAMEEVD

On to `Nc1nc2sc(CNC3CCN(CC(O)(Cn4ccnc4)c4ccc(F)cc4F)CC3)cc2n(-c2ccc3c(c2)N(c2ccccc2)CCO3)c1=O` (stereo not drawn) [Compound I-139, 3-amino-6-(((1-(2-(2,4-difluorophenyl)-2-hydroxy-3-(1H-imidazol-1-yl)propyl)piperidin-4-yl)amino)methyl)-1-(4-phenyl-3,4-dihydro-2H-benzo[b][1,4]oxazin-6-yl)thieno[2,3-b]pyrazin-2(1H)-one], for which the Kd in data set [1] was determined as 0.246 µM; in data set [2], 0.151 µM. The MIC50 against CaCl2 (Table 4) and against CaCl2 (Table 6) was 1.2 µM (≈ 0.87 µg/mL) each time. The “HepG2 MIC50” value with HepG2 cells (Table 5, 48 h incubation) amounted to 3.9 µM; in the data set with HepG2 cells (Table 6, 48 h incubation) it was 3.9 µM.
